From patent publication US9179674B2, “Macrocyclic picolinamide compounds with fungicidal activity” (DOW AGROSCIENCES LLC, priority 2013, dated 2015)
Where two headings read alike, the source gives them in different places.

Key:
[1] = system: Mycosphaerella graminicola; Anamorph: Septoria tritici; assay: Leaf Blotch of Wheat fungicidal activity (SEPTTR); assay type: in vivo; conditions: Zymoseptoria tritici; for pest or weed control at 100 ppm: rate 100 ppm; for pest or weed control at 121.5 g/ha: rate 121.5 g/H
Experimental: Evaluation of Fungicidal Activity: Leaf Blotch of Wheat (Mycosphaerella graminicola; Anamorph: Septoria tritici; Bayer code […]) Technical grades of materials were dissolved in acetone, which were then mixed with nine volumes of water containing 110 ppm Triton X-100. The fungicide solutions were applied onto wheat seedlings using an automated booth sprayer to run-off. All sprayed plants were allowed to air dry prior to further handling. All fungicides were evaluated using the aforementioned method for their activity vs. all target diseases. Wheat leaf blotch and brown rust activity were also evaluated using track spray applications, in which case the fungicides were formulated as EC formulations, containing 0.1% Trycol 5941 in the spray solutions. Wheat plants (variety Yuma) were grown from seed in a greenhouse in 50% mineral soil/50% soil-less Metro mix until the first leaf was fully emerged, with 7-10 seedlings per pot. These plants were inoculated with an aqueous spore suspension of Septoria tritici either prior to or after fungicide treatments. After inoculation the plants were kept in 100% relative humidity (one day in a dark dew chamber followed by two to three days in a lighted dew chamber at 20° C.) to permit spores to germinate and infect the leaf. The plants were then transferred to a greenhouse set at 20° C. for disease to develop. When disease symptoms were fully expressed on the 1st leaves of untreated plants, infection levels were assessed on a scale of 0 to 100 percent disease severity. Percent disease control was calculated using the ratio of disease severity on treated plants relative to untreated plants.

[2] = system: Puccinia triticina; assay: Wheat Brown Rust fungicidal activity (PUCCRT); assay type: in vivo; conditions: Puccinia triticina; for pest or weed control at 100 ppm: rate 100 ppm; for pest or weed control at 121.5 g/ha: rate 121.5 g/H
Experimental: Technical grades of materials were dissolved in acetone, which were then mixed with nine volumes of water containing 110 ppm Triton X-100. The fungicide solutions were applied onto wheat seedlings using an automated booth sprayer to run-off. All sprayed plants were allowed to air dry prior to further handling. All fungicides were evaluated using the aforementioned method for their activity vs. all target diseases. Wheat leaf blotch and brown rust activity were also evaluated using track spray applications, in which case the fungicides were formulated as EC formulations, containing 0.1% Trycol 5941 in the spray solutions. Wheat plants (variety Yuma) were grown from seed in a greenhouse in 50% mineral soil/50% soil-less Metro mix until the first leaf was fully emerged, with 7-10 seedlings per pot. These plants were inoculated with an aqueous spore suspension of Septoria tritici either prior to or after fungicide treatments. After inoculation the plants were kept in 100% relative humidity (one day in a dark dew chamber followed by two to three days in a lighted dew chamber at 20° C.) to permit spores to germinate and infect the leaf. The plants were then transferred to a greenhouse set at 20° C. for disease to develop. When disease symptoms were fully expressed on the 1st leaves of untreated plants, infection levels were assessed on a scale of 0 to 100 percent disease severity. Percent disease control was calculated using the ratio of disease severity on treated plants relative to untreated plants. Evaluation of Fungicidal Activity: Wheat Brown Rust (Puccinia triticina; Synonym: Puccinia recondite f sp. tritici; Bayer code PUCCRT) Wheat plants (variety Yuma) were grown from seed in a greenhouse in 50% mineral soil/50% soil-less Metro mix until the first leaf was fully emerged, with 7-10 seedlings per pot. These plants were inoculated with an aqueous spore suspension of Puccinia triticina either prior to or after fungicide treatments. After inoculation the plants were kept in a dark dew room at 22° C. with 100% relative humidity overnight to permit spores to germinate and infect the leaf. The plants were then transferred to a greenhouse set at 24° C. for disease to develop. Fungicide formulation, application and disease assessment followed the procedures as described in the Example A.

[3] = 24 h, 1 Day Protectant, read-out: Disease control SEPTTR 1DP
[4] = 72 h, 3 Day Curative, read-out: Disease control SEPTTR 3DC
[5] = 24 h, 1 Day Protectant, read-out: Disease control PUCCRT 1DP
[6] = 72 h, 3 Day Curative, read-out: Disease control PUCCRT 3DC

Row | Structure (SMILES) | pest or weed control at 100 ppm [1, 3] [%] | pest or weed control at 100 ppm [1, 4] [%] | pest or weed control at 100 ppm [2, 5] [%] | pest or weed control at 100 ppm [2, 6] [%] | pest or weed control at 121.5 g/ha [1, 3] [%] | pest or weed control at 121.5 g/ha [1, 4] [%] | pest or weed control at 121.5 g/ha [2, 5] [%] | pest or weed control at 121.5 g/ha [2, 6] [%]
1 | COc1ccnc(C(=O)N[C@H]2COC[C@H](Cc3ccc(C(F)(F)F)cc3)[C@@H](OC(=O)C(C)C)[C@H](C)OC2=O)c1OC(C)=O [Compound F67] | 80 to 100 | 0 to 80 | 80 to 100 | 80 to 100 |  |  |  | 
2 | COc1ccnc(C(=O)N[C@H]2COC[C@H](Cc3ccc(F)cc3)[C@@H](OCCCC(F)(F)F)[C@H](C)OC2=O)c1OCOC(C)=O [Compound F93] | 80 to 100 | 80 to 100 | 80 to 100 | 80 to 100 | 80 to 100 | 80 to 100 | 80 to 100 | 80 to 100
3 | COc1ccnc(C(=O)N[C@H]2COC[C@H](CC(F)(F)F)[C@@H](OC3CCCC3)[C@H](C)OC2=O)c1O [Compound F33] | 80 to 100 | 0 to 80 | 0 to 80 |  |  |  |  | 
4 | COc1ccnc(C(=O)N[C@H]2COC[C@H](Cc3cccc4ccccc34)[C@@H](OCC(C)C)[C@H](C)OC2=O)c1OCOC(C)=O [Compound F87] | 80 to 100 | 80 to 100 | 80 to 100 | 80 to 100 | 80 to 100 | 80 to 100 | 80 to 100 | 0 to 80
5 | COc1ccnc(C(=O)N[C@H]2COC[C@H](CCc3ccccc3)[C@@H](OC(=O)C3CC3)[C@H](C)OC2=O)c1OCOC(C)=O [Compound F92] | 80 to 100 | 80 to 100 | 80 to 100 | 80 to 100 | 80 to 100 | 80 to 100 | 80 to 100 | 80 to 100
6 | COc1ccnc(C(=O)N[C@H]2COC[C@H](Cc3ccc(C(F)(F)F)cc3)[C@@H](OCC(C)C)[C@H](C)OC2=O)c1O [Compound F27] | 80 to 100 | 0 to 80 | 80 to 100 | 0 to 80 |  |  |  | 
7 | CCCCCO[C@@H]1[C@@H](Cc2ccc(F)cc2)COC[C@H](NC(=O)c2nccc(OC)c2OCOC(C)=O)C(=O)O[C@H]1C [Compound F95] | 80 to 100 | 80 to 100 | 80 to 100 | 80 to 100 |  |  |  | 
8 | COc1ccnc(C(=O)N[C@H]2COC[C@H](CCc3ccccc3)[C@@H](OC(=O)C3CC3)[C@H](C)OC2=O)c1OC(C)=O [Compound F57] | 80 to 100 | 80 to 100 | 80 to 100 | 80 to 100 | 80 to 100 | 80 to 100 | 80 to 100 | 0 to 80
9 | COc1ccnc(C(=O)N[C@H]2COC[C@H](Cc3ccc(C)cc3)[C@@H](OC(=O)C3CC3)[C@H](C)OC2=O)c1O [Compound F22] |  | 0 to 80 | 0 to 80 | 0 to 80 |  |  |  | 
10 | CCOCC(=O)OCOc1c(OC)ccnc1C(=O)N[C@H]1COC[C@H](CC2CCCC2)[C@@H](OC(=O)C(C)C)[C@H](C)OC1=O [Compound F121] | 80 to 100 | 80 to 100 | 80 to 100 | 80 to 100 | 80 to 100 | 80 to 100 | 80 to 100 | 80 to 100
11 | COc1ccnc(C(=O)N[C@H]2COC[C@H](Cc3ccc(C(F)(F)F)cc3)[C@@H](OC(=O)C3CC3)[C@H](C)OC2=O)c1OCOC(C)=O [Compound F98] | 80 to 100 | 80 to 100 | 80 to 100 | 80 to 100 | 80 to 100 | 0 to 80 | 80 to 100 | 0 to 80
